Converted amounts (≈) assume the structure as drawn. The source made the active and inactive calls. No cut-off for these calls is given here.
Experiments:
[1] = (§1) Hemolytic activity in mouse RBC assessed as hemolysis incubated for 1 hrs by spectrophotometric analysis; assay type: toxicity, cell-based, Erythrocyte; conditions: mouse red blood cells (erythrocytes)
[2] = tested on: Erythrocyte; assay: as §1; assay type: toxicity, cell-based; conditions: erythrocyte, 1 h
[3] = Hemolytic activity in mouse RBC assessed as hemolysis at 320 uM incubated for 1 hrs by spectrophotometric analysis relative to control; assay type: toxicity, cell-based, Erythrocyte; conditions: mouse red blood cells (erythrocytes), read-out: %max
[4] = Antiproliferative activity against HEK293T cells assessed as reduction in cell viability measured for 48 hrs by MTT assay; assay type: toxicity, cell-based, HEK-293T; conditions: human
[5] = tested on: HEK-293T; assay: Antiproliferative activity against HEK293T cells assessed as reduction in cell viability at 2.5 to 320 uM measured for 48 hrs by MTT assay relative to control; assay type: toxicity, cell-based; conditions: human, dose 2.5-320 µM
[6] = Selectivity index, ratio of IC50 for antiproliferative activity against HEK293T cells assessed as reduction in cell viability to MIC for antibacterial activity against methicillin-resistant Staphylococcus aureus assessed as bacterial growth inhibition; assay type: toxicity, cell-based; conditions: human, read-out: Selectivity Index
[7] = tested on: Staphylococcus aureus; assay: Antibacterial activity against methicillin-resistant Staphylococcus aureus assessed as bacterial growth inhibition incubated for 24 hrs by CLSI based micro-broth dilution assay; assay type: functional
[8] = tested on: Staphylococcus aureus; assay: Antibacterial activity against methicillin-resistant Staphylococcus aureus 18475 assessed as bacterial growth inhibition incubated for 24 hrs by CLSI based micro-broth dilution assay; assay type: functional
[9] = tested on: Staphylococcus aureus; assay: Antibacterial activity against Methicillin-resistant Staphylococcus aureus infected in ICR mouse skin infection model assessed as reduction in inflammatory infiltration at 5 mg/kg, sc by H and E staining based microscopic analysis; assay type: functional, organism-based
[10] = tested on: Staphylococcus aureus; assay: Antibacterial activity against methicillin-resistant Staphylococcus aureus 19423 assessed as bacterial growth inhibition incubated for 24 hrs by CLSI based micro-broth dilution assay; assay type: functional
[11] = tested on: Staphylococcus aureus; assay: Antibacterial activity against methicillin-resistant Staphylococcus aureus 18908 assessed as bacterial growth inhibition incubated for 24 hrs by CLSI based micro-broth dilution assay; assay type: functional
[12] = tested on: Staphylococcus aureus; assay: Antibacterial activity against methicillin-resistant Staphylococcus aureus 18567 assessed as bacterial growth inhibition incubated for 24 hrs by CLSI based micro-broth dilution assay; assay type: functional
[13] = tested on: Staphylococcus aureus; assay: Antibacterial activity against methicillin-resistant Staphylococcus aureus 19498 assessed as bacterial growth inhibition incubated for 24 hrs by CLSI based micro-broth dilution assay; assay type: functional
[14] = tested on: Staphylococcus aureus; assay: Antibacterial activity against methicillin-resistant Staphylococcus aureus 19047 assessed as bacterial growth inhibition incubated for 24 hrs by CLSI based micro-broth dilution assay; assay type: functional
[15] = tested on: Staphylococcus aureus; assay: Antibacterial activity against methicillin-resistant Staphylococcus aureus 18878 assessed as bacterial growth inhibition incubated for 24 hrs by CLSI based micro-broth dilution assay; assay type: functional
[16] = tested on: Staphylococcus aureus; assay: Antibacterial activity against methicillin-resistant Staphylococcus aureus 18466 assessed as bacterial growth inhibition incubated for 24 hrs by CLSI based micro-broth dilution assay; assay type: functional
[17] = tested on: Staphylococcus aureus; assay: Antibacterial activity against methicillin-resistant Staphylococcus aureus 18858 assessed as bacterial growth inhibition incubated for 24 hrs by CLSI based micro-broth dilution assay; assay type: functional
[18] = tested on: Staphylococcus aureus; assay: Antibacterial activity against methicillin-resistant Staphylococcus aureus 19167 assessed as bacterial growth inhibition incubated for 24 hrs by CLSI based micro-broth dilution assay; assay type: functional
[19] = tested on: Staphylococcus aureus; assay: Antibacterial activity against Methicillin-resistant Staphylococcus aureus infected in ICR mouse skin infection model assessed as reduction in bacterial content at 5 mg/kg, sc measured upto 10 days; assay type: functional, organism-based; conditions: time <= 10.0 day
[20] = tested on: Staphylococcus aureus; assay: Antibacterial activity against Methicillin-resistant Staphylococcus aureus infected in ICR mouse skin infection model assessed as reduction in skin abscess volume; assay type: functional, organism-based

| Molecule | HC50 at 1 h [1] [µM] | HC10 [2] [µM] | hemolysis at 1 h, 320 µM [3] [%] | IC50 at 48 h [4] [µM] | Activity [5] [%] | selectivity ratio [6] | MIC [7] [µM] | MIC [8] [µM] | Activity [9] | MIC [10] [µM] | MIC [11] [µM] | MIC [12] [µM] | MIC [13] [µM] | MIC [14] [µM] | MIC [15] [µM] | MIC [16] [µM] | MIC [17] [µM] | MIC [18] [µM] | Activity [19] | Activity [20] |
| --- | --- | --- | --- | --- | --- | --- | --- | --- | --- | --- | --- | --- | --- | --- | --- | --- | --- | --- | --- | --- |
| H-WARIARRAIRAWRRWW-NH2 | > 320 | 75.19 | 20.1 | > 320 | 62.65 | 26.7 | 12 |  |  |  |  |  |  |  |  |  |  |  |  |  |
| H-KARVAVKVIRFLYKAW-NH2 | > 320 | > 320 | 6.36 | > 320 |  | 26.7 | 12 |  |  |  |  |  |  |  |  |  |  |  |  |  |
| CN[C@H](CC(C)C)C(=O)N[C@H]1C(=O)N[C@@H](CC(N)=O)C(=O)N[C@H]2C(=O)N[C@H]3C(=O)N[C@H](C(=O)N[C@H](C(=O)O)c4cc(O)cc(O)c4-c4cc3ccc4O)[C@H](O)c3ccc(c(Cl)c3)Oc3cc2cc(c3O[C@@H]2O[C@H](CO)[C@@H](O)[C@H](O)[C@H]2O[C@H]2C[C@](C)(N)[C@H](O)[C@H](C)O2)Oc2ccc(cc2Cl)[C@H]1O [VANCOMYCIN] | > 320 | > 320 | 6.24 | > 320 |  | 320 | 1 (≈ 1.45 µg/mL) | 1 (≈ 1.45 µg/mL) | Active | 1 (≈ 1.45 µg/mL) | 1 (≈ 1.45 µg/mL) | 1 (≈ 1.45 µg/mL) | 1 (≈ 1.45 µg/mL) | 1 (≈ 1.45 µg/mL) | 1 (≈ 1.45 µg/mL) | 1 (≈ 1.45 µg/mL) | 1 (≈ 1.45 µg/mL) | 1 (≈ 1.45 µg/mL) | Active |  |
| H-RARVAVRVIRFLYRAW-NH2 | > 320 | 320 | 9.34 | > 320 |  | 26.7 | 12 |  |  |  |  |  |  |  |  |  |  |  |  |  |
| H-LFRVVRRVVRFIRRAA-NH2 | > 320 | > 320 | 7.53 | > 320 |  | 26.7 | 12 |  |  |  |  |  |  |  |  |  |  |  |  |  |
| H-LRRFARRLIRRIRRAW-NH2 | > 320 | > 320 | 7.16 | > 320 |  | 26.7 | 12 |  |  |  |  |  |  |  |  |  |  |  |  |  |
| H-LRPLARRPIRRIRRAW-NH2 | > 320 | > 320 | 8.74 | > 320 |  | 6.67 | > 48 |  |  |  |  |  |  |  |  |  |  |  |  |  |
| H-RRPLARPLIRFIRRPW-NH2 | > 320 | > 320 | 7.57 | > 320 |  | 6.67 | > 48 |  |  |  |  |  |  |  |  |  |  |  |  |  |
| Cc1onc(-c2ccccc2)c1C(=O)N[C@@H]1C(=O)N2[C@@H]1SC(C)(C)[C@@H]2C(=O)O [OXACILLIN] |  |  |  |  |  |  |  | > 480 |  | > 480 | > 480 | > 480 | > 480 | > 480 | > 480 | > 480 | > 480 | > 480 |  |  |
| H-RRRVARRVIRFIRRAW-NH2 | > 320 | 320 | 10.2 | > 320 |  | 26.7 | 12 |  |  |  |  |  |  |  |  |  |  |  |  |  |
| H-WRWWRRRRWWRWRRWW-NH2 | > 320 | 33.2 | 40.3 | > 320 | 59.04 | 6.67 | 48 |  |  |  |  |  |  |  |  |  |  |  |  |  |
| H-KARVSVKVTASLSKAW-NH2 | > 320 | > 320 | 7.57 | > 320 |  | 6.67 | > 48 |  |  |  |  |  |  |  |  |  |  |  |  |  |
| H-KASVSVKVTASLSKAW-NH2 | > 320 | > 320 | 7.51 | > 320 |  | 6.67 | > 48 |  |  |  |  |  |  |  |  |  |  |  |  |  |
| H-RRRVARRVFWFVRRAV-NH2 | > 320 | > 320 | 8.25 | > 320 |  | 13.3 | 24 |  |  |  |  |  |  |  |  |  |  |  |  |  |
| H-RRFFVRRVFFRRRRFF-OH | > 320 | 41.05 | 30.1 | > 320 | 59.65 | 6.67 | 48 |  |  |  |  |  |  |  |  |  |  |  |  |  |
| COc1cccc(OC)c1C(=O)N[C@@H]1C(=O)N2[C@@H]1SC(C)(C)[C@@H]2C(=O)O [METHICILLIN] |  |  |  |  |  |  |  | > 480 |  | > 480 | > 480 | > 480 | > 480 | > 480 | > 480 | > 480 | > 480 | > 480 |  | Active |
| H-RARVRVRVRRFLRRRW-NH2 | > 320 | 320 | 11.3 | > 320 |  | 6.67 | > 48 |  |  |  |  |  |  |  |  |  |  |  |  |  |
| H-RRRWARRIIWIIRRAW-NH2 | > 320 | > 320 | 8.66 | > 320 |  | 13.3 | 24 |  |  |  |  |  |  |  |  |  |  |  |  |  |
| H-RRWIARRAIWRRRRWW-NH2 | > 320 | 92.35 | 17.2 | > 320 | 58.94 | 6.67 | 48 |  |  |  |  |  |  |  |  |  |  |  |  |  |
| H-KGVIFAKASVSVKVTASLSKAWTNSQ-NH2 | > 320 | > 320 | 5.92 | > 320 |  | 6.67 | > 48 |  |  |  |  |  |  |  |  |  |  |  |  |  |
| H-RRWWWRRWWWRRRRWW-NH2 | > 320 | 25.91 | 51.3 | > 320 | 55.74 | 6.67 | 48 |  |  |  |  |  |  |  |  |  |  |  |  |  |
| H-KASVSVKVTASLSKAWTNSQ-NH2 | > 320 | > 320 | 6.24 | > 320 |  | 6.67 | > 48 |  |  |  |  |  |  |  |  |  |  |  |  |  |

— ChEMBL document CHEMBL5537162, “Development of Antibacterial Peptides with Membrane Disruption and Folate Pathway Inhibitory Activities against Methicillin-Resistant Staphylococcus aureus” (J Med Chem, 2024)
